Values quoted from earlier work in Sander's compilation of Henry's law constants (doi:10.1016/j.chroma.2007.11.025).

assay: Henry solubility constant Hcp at 298.15 K (mol/(m3 Pa)); conditions: reference: Sieg et al. (2008); cited value

Row | Henry solubility constant Hcp | SMILES
1 | 0.019 | CCCCCCCC=O [octanal]
2 | 0.037 | CCCCCCC=O [heptanal]
3 | 0.0016 | Fc1ccccc1 [fluorobenzene]
4 | 0.014 | CCCCCCCCC=O [nonanal]

The next lines start with the compound.

Row | SMILES | Henry solubility constant Hcp
5 | CCc1ccccc1 [ethylbenzene] | 0.0013
6 | ClCCBr [1-chloro-2-bromoethane] | 0.011
7 | CCCCCCCCCC=O [decanal] | 0.0055
8 | Cc1ccccc1C [1,2-dimethylbenzene] | 0.0019
9 | Cc1ccc(C)cc1 [1,4-dimethylbenzene] | 0.0014
10 | Cc1ccccc1 [methylbenzene] | 0.0015
11 | Cc1cccc(C)c1 [1,3-dimethylbenzene] | 0.0014
12 | c1ccccc1 [benzene] | 0.0018
